Assay results from patent US8299111B2, “Compounds which modulate the CB2 receptor” (Boehringer Ingelheim International GmbH, priority 2006, dated 2012).

Each molecule was assayed against T1, human CB2R (Homo sapiens, UniProt P34972) (assay: CB2R mediated modulation of cAMP synthesis). Conditions: found through the use of the above described assays (binding and cAMP); CHO cells expressing human CB2R, forskolin-stimulated cAMP.
T1 construct: host or cells: CHO cells
Assay type: cell-based
How it was run: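 CHO cells expressing human CB2R were treated for 30 min at 37 °C with compound in buffer containing 1 mM IBMX, 0.25% BSA and 10 uM forskolin. cAMP was measured after lysis. EC50 is the concentration giving 50% inhibition of forskolin-stimulated cAMP, scaled to the level set by 1 uM CP55940, fitted by four-parameter logistic.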

T1 sequence (P34972 whole entry): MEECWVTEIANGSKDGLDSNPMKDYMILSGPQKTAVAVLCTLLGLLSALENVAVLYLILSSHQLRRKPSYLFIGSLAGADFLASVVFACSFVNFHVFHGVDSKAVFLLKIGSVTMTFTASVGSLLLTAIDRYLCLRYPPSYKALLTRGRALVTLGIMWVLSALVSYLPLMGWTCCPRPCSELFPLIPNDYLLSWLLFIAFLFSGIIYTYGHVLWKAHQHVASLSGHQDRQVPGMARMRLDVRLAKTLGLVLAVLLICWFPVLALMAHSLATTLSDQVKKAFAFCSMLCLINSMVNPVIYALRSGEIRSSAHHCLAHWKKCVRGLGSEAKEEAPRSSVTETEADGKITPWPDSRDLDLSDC

Row | agonistic activity | Structure (SMILES)
1 | agonistic activity | CC(C)(C(=O)Nc1cc(-c2ccccc2)on1)S(=O)(=O)c1ccc(Cl)cc1 [2-(4-Chloro-benzenesulfonyl)-2-methyl-N-(5-phenyl-isoxazol-3-yl)-propionamide]
2 | agonistic activity | CC(C)(C(=O)Nc1ccc(-c2ccccc2)cn1)S(=O)(=O)c1ccc(Cl)cc1 [2-(4-Chloro-benzenesulfonyl)-2-methyl-N-(5-phenyl-pyridin-2-yl)-propionamide]
3 | agonistic activity | CC(C)(C(=O)Nc1ncc(-c2ccccc2)s1)S(=O)(=O)c1ccc(Cl)cc1 [2-(4-Chloro-benzenesulfonyl)-2-methyl-N-(5-phenyl-thiazol-2-yl)-propionamide]
4 | agonistic activity | CC(C)(C(=O)Nc1nnc(C(F)(F)F)s1)S(=O)(=O)c1ccc(Cl)cc1 [2-(4-Chloro-benzenesulfonyl)-2-methyl-N-(5-trifluoromethyl-[1,3,4]thiadiazol-2-yl)-propionamide]
5 | agonistic activity | CC(C)(C(=O)Nc1ccc(C(F)(F)F)cn1)S(=O)(=O)c1ccc(Cl)cc1 [2-(4-Chloro-benzenesulfonyl)-2-methyl-N-(5-trifluoromethyl-pyridin-2-yl)-propionamide]
6 | agonistic activity | Cc1cccc(NC(=O)C(C)(C)S(=O)(=O)c2ccc(Cl)cc2)n1 [2-(4-Chloro-benzenesulfonyl)-2-methyl-N-(6-methyl-pyridin-2-yl)-propionamide]
7 | agonistic activity | CC(C)(C(=O)Nc1ccc(Oc2ccccc2)nc1)S(=O)(=O)c1ccc(Cl)cc1 [2-(4-Chloro-benzenesulfonyl)-2-methyl-N-(6-phenoxy-pyridin-3-yl)-propionamide]
8 | agonistic activity | CC(C)(C(=O)Nc1cccc(C(F)(F)F)n1)S(=O)(=O)c1ccc(Cl)cc1 [2-(4-Chloro-benzenesulfonyl)-2-methyl-N-(6-trifluoromethyl-pyridin-2-yl)-propionamide]
9 | agonistic activity | CC(C)(C(=O)Nc1ncc(C2CCOCC2)s1)S(=O)(=O)c1ccc(Cl)cc1 [2-(4-Chloro-benzenesulfonyl)-2-methyl-N-[5-(tetrahydro-pyran-4-yl)-thiazol-2-yl]-propionamide]
10 | agonistic activity | CC(C)(C(=O)Nc1cccc2ccccc12)S(=O)(=O)c1ccc(Cl)cc1 [2-(4-Chloro-benzenesulfonyl)-2-methyl-N-naphthalen-1-yl-propionamide]
11 | agonistic activity | CC(C)(C(=O)Nc1cccnc1)S(=O)(=O)c1ccc(Cl)cc1 [2-(4-Chloro-benzenesulfonyl)-2-methyl-N-pyridin-3-yl-propionamide]
12 | agonistic activity | Cc1c(-c2ccccc2)nn(C)c1NC(=O)C(C)(C)S(=O)(=O)c1ccc(Cl)cc1 [2-(4-Chloro-benzenesulfonyl)-N-(2,4-dimethyl-5-phenyl-2H-pyrazol-3-yl)-2-methyl-propionamide]
13 | agonistic activity | Cc1cc(NC(=O)C(C)(C)S(=O)(=O)c2ccc(Cl)cc2)n(C)n1 [2-(4-Chloro-benzenesulfonyl)-N-(2,5-dimethyl-2H-pyrazol-3-yl)-2-methyl-propionamide]
14 | agonistic activity | CC(C)(C(=O)Nc1ccccc1Cl)S(=O)(=O)c1ccc(Cl)cc1 [2-(4-Chloro-benzenesulfonyl)-N-(2-chloro-phenyl)-2-methyl-propionamide]
15 | agonistic activity | Cc1noc(NC(=O)C(C)(C)S(=O)(=O)c2ccc(Cl)cc2)c1C [2-(4-Chloro-benzenesulfonyl)-N-(3,4-dimethyl-isoxazol-5-yl)-2-methyl-propionamide]
16 | agonistic activity | CC(C)(C(=O)Nc1cccc(Cl)c1)S(=O)(=O)c1ccc(Cl)cc1 [2-(4-Chloro-benzenesulfonyl)-N-(3-chloro-phenyl)-2-methyl-propionamide]

Row | agonistic activity | Structure (SMILES)
17 | agonistic activity | CC(C)c1cc(NC(=O)C(C)(C)S(=O)(=O)c2ccc(Cl)cc2)on1 [2-(4-Chloro-benzenesulfonyl)-N-(3-isopropyl-isoxazol-5-yl)-2-methyl-propionamide]
18 | agonistic activity | Cc1onc(NC(=O)C(C)(C)S(=O)(=O)c2ccc(Cl)cc2)c1C [2-(4-Chloro-benzenesulfonyl)-N-(4,5-dimethyl-isoxazol-3-yl)-2-methyl-propionamide]
19 | agonistic activity | CC(C)(C(=O)Nc1nc(-c2ccccc2)c(-c2ccccc2)s1)S(=O)(=O)c1ccc(Cl)cc1 [2-(4-Chloro-benzenesulfonyl)-N-(4,5-diphenyl-thiazol-2-yl)-2-methyl-propionamide]
20 | agonistic activity | CC(C)(C(=O)Nc1ccc(Cl)cc1)S(=O)(=O)c1ccc(Cl)cc1 [2-(4-Chloro-benzenesulfonyl)-N-(4-chloro-phenyl)-2-methyl-propionamide]
21 | agonistic activity | CC(C)(C(=O)Nc1nc(C2CCCCC2)cs1)S(=O)(=O)c1ccc(Cl)cc1 [2-(4-Chloro-benzenesulfonyl)-N-(4-cyclohexyl-thiazol-2-yl)-2-methyl-propionamide]
22 | agonistic activity | CCc1c(C)noc1NC(=O)C(C)(C)S(=O)(=O)c1ccc(Cl)cc1 [2-(4-Chloro-benzenesulfonyl)-N-(4-ethyl-3-methyl-isoxazol-5-yl)-2-methyl-propionamide]
23 | agonistic activity | CCc1ccnc(NC(=O)C(C)(C)S(=O)(=O)c2ccc(Cl)cc2)c1 [2-(4-Chloro-benzenesulfonyl)-N-(4-ethyl-pyridin-2-yl)-2-methyl-propionamide]
24 | agonistic activity | CC(C)(C(=O)Nc1ncc(C#N)s1)S(=O)(=O)c1ccc(Cl)cc1 [2-(4-Chloro-benzenesulfonyl)-N-(5-cyano-thiazol-2-yl)-2-methyl-propionamide]
25 | agonistic activity | Cn1nc(C2CCCC2)cc1NC(=O)C(C)(C)S(=O)(=O)c1ccc(Cl)cc1 [2-(4-Chloro-benzenesulfonyl)-N-(5-cyclopentyl-2-methyl-2H-pyrazol-3-yl)-2-methyl-propionamide]
26 | agonistic activity | Cn1nc(C2CC2)cc1NC(=O)C(C)(C)S(=O)(=O)c1ccc(Cl)cc1 [2-(4-Chloro-benzenesulfonyl)-N-(5-cyclopropyl-2-methyl-2H-pyrazol-3-yl)-2-methyl-propionamide]
27 | agonistic activity | CCc1sc(NC(=O)C(C)(C)S(=O)(=O)c2ccc(Cl)cc2)nc1-c1ccccc1 [2-(4-Chloro-benzenesulfonyl)-N-(5-ethyl-4-phenyl-thiazol-2-yl)-2-methyl-propionamide]
28 | agonistic activity | CC(C)c1cc(NC(=O)C(C)(C)S(=O)(=O)c2ccc(Cl)cc2)n(C)n1 [2-(4-Chloro-benzenesulfonyl)-N-(5-isopropyl-2-methyl-2H-pyrazol-3-yl)-2-methyl-propionamide]
29 | agonistic activity | COc1ccc(NC(=O)C(C)(C)S(=O)(=O)c2ccc(Cl)cc2)cn1 [2-(4-Chloro-benzenesulfonyl)-N-(6-methoxy-pyridin-3-yl)-2-methyl-propionamide]
30 | agonistic activity | CC(C)(C(=O)Nc1nc(-c2ccc(F)c(F)c2)cs1)S(=O)(=O)c1ccc(Cl)cc1 [2-(4-Chloro-benzenesulfonyl)-N-[4-(3,4-difluoro-phenyl)-thiazol-2-yl]-2-methyl-propionamide]
31 | agonistic activity | CC(C)(C(=O)Nc1cc2ccccc2cn1)S(=O)(=O)c1ccc(Cl)cc1 [2-(4-Chloro-benzenesulfonyl)-N-isoquinolin-3-yl-2-methyl-propionamide]

Row | Structure (SMILES) | agonistic activity
32 | CC(C)(C(=O)Nc1ccc2ccccc2c1)S(=O)(=O)c1ccc(Cl)cc1 [2-(4-Chloro-benzenesulfonyl)-2-methyl-N-naphthalen-2-yl-propionamide] | agonistic activity
33 | CC(C)(C(=O)Nc1ccccn1)S(=O)(=O)c1ccc(Cl)cc1 [2-(4-Chloro-benzenesulfonyl)-2-methyl-N-pyridin-2-yl-propionamide] | agonistic activity
34 | CC(C)(C(=O)Nc1ccc2ccccc2n1)S(=O)(=O)c1ccc(Cl)cc1 [2-(4-Chloro-benzenesulfonyl)-2-methyl-N-quinolin-2-yl-propionamide] | agonistic activity
35 | CC(C)(C(=O)Nc1cnc2ccccc2c1)S(=O)(=O)c1ccc(Cl)cc1 [2-(4-Chloro-benzenesulfonyl)-2-methyl-N-quinolin-3-yl-propionamide] | agonistic activity
36 | Cc1nc(NC(=O)C(C)(C)S(=O)(=O)c2ccc(Cl)cc2)sc1C [2-(4-Chloro-benzenesulfonyl)-N-(4,5-dimethyl-thiazol-2-yl)-2-methyl-propionamide] | agonistic activity
37 | CC(C)(C(=O)Nc1nc(C2CC2)cs1)S(=O)(=O)c1ccc(Cl)cc1 [2-(4-Chloro-benzenesulfonyl)-N-(4-cyclopropyl-thiazol-2-yl)-2-methyl-propionamide] | agonistic activity
38 | Cn1nc(C2CCCCC2)cc1NC(=O)C(C)(C)S(=O)(=O)c1ccc(Cl)cc1 [2-(4-Chloro-benzenesulfonyl)-N-(5-cyclohexyl-2-methyl-2H-pyrazol-3-yl)-2-methyl-propionamide] | agonistic activity
39 | CC(C)c1cnc(NC(=O)C(C)(C)S(=O)(=O)c2ccc(Cl)cc2)s1 [2-(4-Chloro-benzenesulfonyl)-N-(5-isopropyl-thiazol-2-yl)-2-methyl-propionamide] | agonistic activity
40 | CC(C)(C(=O)Nc1nc(-c2ccc(Cl)cc2)cs1)S(=O)(=O)c1ccc(Cl)cc1 [2-(4-Chloro-benzenesulfonyl)-N-[4-(4-chloro-phenyl)-thiazol-2-yl]-2-methyl-propionamide] | agonistic activity
